Tests used:
[1] = Chemical stability (open glass jar, 40° C., 75% relative humidity); format: physicochemical; conditions: 50 mg, after one week
Description: After one week, the amount of test compound remaining was determined.

[2] = tested on: Aspergillus fumigatus; test: Determination of fungal susceptibility (MIC); format: cell-based; conditions: CYG medium, 5 days at 30° C., growth to 35% of control or less
Description: (§1) A panel of Candida isolates plus single isolates of the dermatophytes Microsporum canis, Trichophyton rubrum and T. mentagrophytes; Aspergillus fumigates, and Cryptococcus neoformans were used to evaluate the activity of the test compounds in vitro. Inocula were prepared as broth cultures (yeasts) or as suspensions of fungal material made from agar slope cultures (moulds). The test compounds were pipetted from DMSO stock solution into water to provide a series of 10-fold dilutions. The fungal inocula were suspended in the growth medium CYG (F. C. Odds, Journal of Clinical Microbiology, 29, (2735-2740, 1991) at approximately 50,000 colony-forming units (CFU) per ml and added to the aqueous test drugs. The cultures were set up in the 96 wells of plastic microdilution plates and they were incubated for 2 days at 37° C. (Candida spp.) or for 5 days at 30° C. (other fungi). Growth in the microcultures was measured by their optical density (OD) measured at a wavelength of 405 nm. The OD for cultures with test compounds was calculated as a percentage of the control, drug-free OD. Inhibition of growth to 35% of control or less was recorded as significant inhibition.
(§2) Minimal inhibitory concentration (MICs; in 10^−6 M) of intermediate 2 as the major metabolite and some of the compounds of formula (I) for Candida glabrata, Candida krusel, Candida parapsilosis, Candida albicans, Candida kefyr, Candida tropicalis, Microsporum canis, Trichophyton rubrum, Trichophyton mentagrophytes, Cryptococcus neoformans, Aspergillus fumigatus are listed in table 8.

[3] = tested on: Candida albicans; test: Determination of fungal susceptibility (MIC); format: cell-based; conditions: CYG medium, 2 days at 37° C., growth to 35% of control or less
Description: as §1, §2

[4] = tested on: Candida glabrata; test: Determination of fungal susceptibility (MIC); format: cell-based; conditions: CYG medium, 2 days at 37° C., growth to 35% of control or less
Description: as §1, §2

[5] = tested on: Candida kefyr; test: Determination of fungal susceptibility (MIC); format: cell-based; conditions: CYG medium, 2 days at 37° C., growth to 35% of control or less
Description: as §1, §2

[6] = tested on: Candida krusei; test: Determination of fungal susceptibility (MIC); format: cell-based; conditions: CYG medium, 2 days at 37° C., growth to 35% of control or less
Description: as §1, §2

[7] = tested on: Candida parapsilosis; test: Determination of fungal susceptibility (MIC); format: cell-based; conditions: CYG medium, 2 days at 37° C., growth to 35% of control or less
Description: as §1, §2

[8] = tested on: Candida tropicalis; test: Determination of fungal susceptibility (MIC); format: cell-based; conditions: CYG medium, 2 days at 37° C., growth to 35% of control or less
Description: as §1, §2

[9] = tested on: Cryptococcus neoformans; test: Determination of fungal susceptibility (MIC); format: cell-based; conditions: CYG medium, 5 days at 30° C., growth to 35% of control or less
Description: as §1, §2

[10] = tested on: Microsporum canis; test: Determination of fungal susceptibility (MIC); format: cell-based; conditions: CYG medium, 5 days at 30° C., growth to 35% of control or less
Description: as §1, §2

[11] = tested on: Trichophyton mentagrophytes; test: Determination of fungal susceptibility (MIC); format: cell-based; conditions: CYG medium, 5 days at 30° C., growth to 35% of control or less
Description: as §1, §2

[12] = tested on: Trichophyton rubrum; test: Determination of fungal susceptibility (MIC); format: cell-based; conditions: CYG medium, 5 days at 30° C., growth to 35% of control or less
Description: as §1, §2

[13] = tested on: Aspergillus fumigatus; test: Disseminated aspergillosis in guinea-pigs; format: in vivo; conditions: for CFU/g (liver): culture-positive livers post mortem; for % neg (total percentage culture-negative deep tissues): liver, spleen, kidney, lung and brain
Description: (§3) Specific pathogen-free (SPF) guinea-pigs (weighing 400-500 g) were used in all experiments. A catheter was placed into the left jugular vein of the animals that were treated by intravenous infusion, the vein was ligated, and the catheter was connected to a microprocessor-controlled infusion pump. The animals were infected with Aspergillus fumigatus (4,000 CFU/g body weight) or with Candida albicans (40,000 CFU/g body weight) either via the lateral vein of the penis or via the implanted catheter. Intravenous treatments (5 mg/kg/day) began 1 hour after infection. The test formulations were then administered on subsequent days as two, 1 hour infusions daily, separated by a period of 5 hours, for a total of 19 infusions or 9.5 days. Oral treatments with the test compounds (5 mg/kg/day) begun 1 hour after infection and were repeated twice daily up to the tenth day after infection (a total of 19 treatments. For each group of tested animals (number of tested animals per group given in column “N”), the mean survival time (MST) in days was recorded as well as the % survivors (% surv). Animals of each group which died during the experiment and those that survived the experiment and were killed, were investigated for counts of Aspergillus fumigatus and Candida albicans in deep tissue (liver, spleen, kidney, lung and brain) post mortem. The remaining CFU/g in the culture-positive livers was measured and expressed in table 9 (after intravenous treatment) and table 10 (after oral treatment) as mean log10 CFU/g. The columns “%neg” in tables 9 and 10 express the total percentage culture-negative deep tissues after the treatment.

[14] = tested on: Candida albicans; test: Disseminated candidosis in guinea-pigs; format: in vivo; conditions: for CFU/g (liver): culture-positive livers post mortem; for % neg (total percentage culture-negative deep tissues): liver, spleen, kidney, lung and brain
Description: as §3

[15] = i.v. treatment 5 mg/kg/day, 19 infusions, 9.5 days
[16] = oral treatment 5 mg/kg/day, twice daily, 19 treatments

CC(OC(=O)CCN)C(C)n1ncn(-c2ccc(N3CCN(c4ccc(OCC5COC(Cn6cncn6)(c6ccc(F)cc6F)O5)cc4)CC3)cc2)c1=O.O.O=C(O)C(=O)O (stereo not drawn) [Compound 13]
Stability (amount of test compound remaining) [1]: 98.3%

CC(C)C(N)C(=O)OC(C)C(C)n1ncn(-c2ccc(N3CCN(c4ccc(OCC5COC(Cn6cncn6)(c6ccc(F)cc6F)O5)cc4)CC3)cc2)c1=O (stereo not drawn) [Compound 18]
Stability (amount of test compound remaining) [1]: 101.7%
MIC [2]: 1 10^−6 M
MIC [3]: <0.1 10^−6 M
MIC [4]: 10 10^−6 M
MIC [5]: <0.1 10^−6 M
MIC [6]: 1 10^−6 M
MIC [7]: <0.1 10^−6 M
MIC [8]: <0.1 10^−6 M
MIC [9]: 1 10^−6 M
MIC [10]: 10 10^−6 M
MIC [11]: 1 10^−6 M
MIC [12]: 10 10^−6 M
CFU/g (liver) ([13]; i.v. treatment 5 mg/kg/day): 3.1 mean log10 CFU/g
CFU/g (liver) ([13]; oral treatment 5 mg/kg/day): 3.2 mean log10 CFU/g
% surv (% survivors) [13, 15]: 16.7%
MST (mean survival time) [13, 15]: 5.3 days
% neg (total percentage culture-negative deep tissues) ([13]; i.v. treatment 5 mg/kg/day): 29%
% neg (total percentage culture-negative deep tissues) ([13]; oral treatment 5 mg/kg/day): 20%
% surv (% survivors) [13, 16]: 0%
MST (mean survival time) [13, 16]: 5.2 days
CFU/g (liver) ([14]; i.v. treatment 5 mg/kg/day): 0 mean log10 CFU/g
CFU/g (liver) ([14]; oral treatment 5 mg/kg/day): 0 mean log10 CFU/g
% surv (% survivors) [14, 15]: 66.7%
MST (mean survival time) [14, 15]: 9.2 days
% neg (total percentage culture-negative deep tissues) ([14]; i.v. treatment 5 mg/kg/day): 92%
% neg (total percentage culture-negative deep tissues) ([14]; oral treatment 5 mg/kg/day): 68%
% surv (% survivors) [14, 16]: 100%
MST (mean survival time) [14, 16]: 10 days

CCN(CC)CCC(=O)OC(C)C(C)n1ncn(-c2ccc(N3CCN(c4ccc(OCC5COC(Cn6cncn6)(c6ccc(F)cc6F)O5)cc4)CC3)cc2)c1=O.O.O=C(O)C=CC(=O)O (stereo not drawn) [Compound 15]
Stability (amount of test compound remaining) [1]: 90.4%

CC(C)CC(N)C(=O)OC(C)C(C)n1ncn(-c2ccc(N3CCN(c4ccc(OCC5COC(Cn6cncn6)(c6ccc(F)cc6F)O5)cc4)CC3)cc2)c1=O (stereo not drawn) [Compound 21]
Stability (amount of test compound remaining) [1]: 100.3%
MIC [2]: 1 10^−6 M
MIC [3]: 0.1 10^−6 M
MIC [4]: 10 10^−6 M
MIC [5]: 0.1 10^−6 M
MIC [6]: 1 10^−6 M
MIC [7]: 0.1 10^−6 M
MIC [8]: 0.1 10^−6 M
MIC [9]: 1 10^−6 M
MIC [10]: 1 10^−6 M
MIC [11]: 1 10^−6 M
MIC [12]: <0.1 10^−6 M
CFU/g (liver) ([13]; i.v. treatment 5 mg/kg/day): 3.7 mean log10 CFU/g
CFU/g (liver) ([13]; oral treatment 5 mg/kg/day): 3.0 mean log10 CFU/g
% surv (% survivors) [13, 15]: 0%
MST (mean survival time) [13, 15]: 5.7 days
% neg (total percentage culture-negative deep tissues) ([13]; i.v. treatment 5 mg/kg/day): 46%
% neg (total percentage culture-negative deep tissues) ([13]; oral treatment 5 mg/kg/day): 55%
% surv (% survivors) [13, 16]: 40%
MST (mean survival time) [13, 16]: 7.0 days
CFU/g (liver) ([14]; i.v. treatment 5 mg/kg/day): 2.7 mean log10 CFU/g
CFU/g (liver) ([14]; oral treatment 5 mg/kg/day): 0 mean log10 CFU/g
% surv (% survivors) [14, 15]: 16.7%
MST (mean survival time) [14, 15]: 6.5 days
% neg (total percentage culture-negative deep tissues) ([14]; i.v. treatment 5 mg/kg/day): 75%
% neg (total percentage culture-negative deep tissues) ([14]; oral treatment 5 mg/kg/day): 83%
% surv (% survivors) [14, 16]: 90%
MST (mean survival time) [14, 16]: 9.6 days

C[C@H](OC(=O)CCN)[C@H](C)n1ncn(-c2ccc(N3CCN(c4ccc(OC[C@@H]5CO[C@@](Cn6cncn6)(c6ccc(F)cc6F)O5)cc4)CC3)cc2)c1=O.O.O=C(O)C[C@H](O)C(=O)O.O=C(O)C[C@H](O)C(=O)O (relative stereo) [Compound 12, [2S-[2α,4α-[(R*,R*)]]]-2-[4-[4-[4-[4-[[2-(2,4-difluorophenyl)-2-(1H-1,2,4-triazol-1-ylmethyl)-1,3-dioxolan-4-yl]methoxy]phenyl]-1-piperazinyl]phenyl]-4,5-dihydro-5-oxo-1H-1,2,4-triazol-1-yl]-1-methylpropyl β-alanine (S)-hydroxybutanedioate(1:2) monohydrate]
Stability (amount of test compound remaining) [1]: 96.1%

CCN(CC)CC(=O)OC(C)C(C)n1ncn(-c2ccc(N3CCN(c4ccc(OCC5COC(Cn6cncn6)(c6ccc(F)cc6F)O5)cc4)CC3)cc2)c1=O.O=C(O)C=CC(=O)O (stereo not drawn) [Compound 16, [2S-[2α,4α-[(R*,R*)]]]-2-[4-[4-[4-[4-[[2-(2,4-difluorophenyl)-2-(1H-1,2,4-triazol-1-ylmethyl)-1,3-dioxolan-4-yl]methoxy]phenyl]-1-piperazinyl]phenyl]-4,5-dihydro-5-oxo-1H-1,2,4-triazol-1-yl]-1-methylpropyl N,N-diethylglycine (E)-2-butenedioate]
Stability (amount of test compound remaining) [1]: 100.3%
MIC [2]: 1 10^−6 M
MIC [3]: <0.1 10^−6 M
MIC [4]: 10 10^−6 M
MIC [5]: <0.1 10^−6 M
MIC [6]: 1 10^−6 M
MIC [7]: <0.1 10^−6 M
MIC [8]: <0.1 10^−6 M
MIC [9]: 1 10^−6 M
MIC [10]: 1 10^−6 M
MIC [11]: 1 10^−6 M
MIC [12]: <0.1 10^−6 M
CFU/g (liver) ([13]; i.v. treatment 5 mg/kg/day): 3.4 mean log10 CFU/g
CFU/g (liver) ([13]; oral treatment 5 mg/kg/day): 3.1 mean log10 CFU/g
% surv (% survivors) [13, 15]: 16.7%
MST (mean survival time) [13, 15]: 6.8 days
% neg (total percentage culture-negative deep tissues) ([13]; i.v. treatment 5 mg/kg/day): 29%
% neg (total percentage culture-negative deep tissues) ([13]; oral treatment 5 mg/kg/day): 48%
% surv (% survivors) [13, 16]: 40%
MST (mean survival time) [13, 16]: 6.5 days
CFU/g (liver) ([14]; i.v. treatment 5 mg/kg/day): 0 mean log10 CFU/g
CFU/g (liver) ([14]; oral treatment 5 mg/kg/day): 0 mean log10 CFU/g
% surv (% survivors) [14, 15]: 66.7%
MST (mean survival time) [14, 15]: 9.3 days
% neg (total percentage culture-negative deep tissues) ([14]; i.v. treatment 5 mg/kg/day): 79%
% neg (total percentage culture-negative deep tissues) ([14]; oral treatment 5 mg/kg/day): 73%
% surv (% survivors) [14, 16]: 90%
MST (mean survival time) [14, 16]: 9.6 days

[2S-[2α,4α[(R*,R*)]]]-4-[4-[4-[4-[[2-(2,4-difluorophenyl)-2-(1H-1,2,4-triazol-1-ylmethyl)-1,3-dioxolan-4-yl]methoxy]-phenyl]-1-piperazinyl]phenyl]-2,4-dihydro-2-(2-hydroxy-1-methylpropyl)-3H-1,2,4-triazol-3-one [Interm. 2a]
MIC [2]: 1 10^−6 M
MIC [3]: 10 10^−6 M
MIC [4]: 10 10^−6 M
MIC [5]: <0.1 10^−6 M
MIC [6]: 1 10^−6 M
MIC [7]: 1 10^−6 M
MIC [8]: 1 10^−6 M
MIC [9]: 1 10^−6 M
MIC [10]: 1 10^−6 M
MIC [11]: 1 10^−6 M
MIC [12]: 1 10^−6 M

CC(N)C(=O)OC(C)C(C)n1ncn(-c2ccc(N3CCN(c4ccc(OCC5COC(Cn6cncn6)(c6ccc(F)cc6F)O5)cc4)CC3)cc2)c1=O.O.O=C(O)CCC(=O)O (stereo not drawn) [Compound 10]
Stability (amount of test compound remaining) [1]: 31.0%

Reference: patent US6703506B2, “Amino acid ester containing azole antifungals” (Janssen Pharmaceutica, N.V., priority 1997, dated 2004)
